Values after ≈ are worked out from the molar mass of the structure shown. Active and inactive are the calls of the source. The calls are words filed in the database; no cut-off is given here.
Experiments:
Bacillus subtilis = assay: Antibacterial activity against Bacillus subtilis assessed as inhibition of bacterial growth by two-fold serial broth dilution method; type: functional
Escherichia coli = assay: Antibacterial activity against Escherichia coli assessed as inhibition of bacterial growth by two-fold serial broth dilution method; type: functional
Enterococcus faecalis [1] = assay: Antibacterial activity against Enterococcus faecalis assessed as inhibition of bacterial growth by two-fold serial broth dilution method; type: functional
[2] = test system: Acinetobacter calcoaceticus; assay: Antibacterial activity against Acinetobacter calcoaceticus assessed as inhibition of bacterial growth by two-fold serial broth dilution method; type: functional
Listeria = assay: Antibacterial activity against Listeria sps. assessed as inhibition of bacterial growth by two-fold serial broth dilution method; type: functional
Serratia marcescens = assay: Antibacterial activity against Serratia marcescens assessed as inhibition of bacterial growth by two-fold serial broth dilution method; type: functional
Salmonella enterica = assay: Antibacterial activity against Salmonella enterica assessed as inhibition of bacterial growth by two-fold serial broth dilution method; type: functional
Staphylococcus aureus = assay: Antibacterial activity against Staphylococcus aureus assessed as inhibition of bacterial growth by two-fold serial broth dilution method; type: functional
SK-MEL-5 = assay: Cytotoxicity against human SK-MEL-5 cells assessed as inhibition of cell growth at 10 uM; type: functional
HOP-92 = assay: Cytotoxicity against human HOP-92 cells assessed as inhibition of cell growth at 10 uM; type: functional
MOLT-4 = assay: Cytotoxicity against human MOLT-4 cells assessed as inhibition of cell growth at 10 uM; type: functional
MDA-MB-435 = assay: Cytotoxicity against human MDA-MB-435 cells at 10 uM; type: functional
HEK293 [3] = assay: Cytotoxicity against human HEK293 cells at 0.1 uM by MTT assay; type: toxicity, cell-based; settings: hek293, 0.1 µM
HEK293 [4] = assay: Cytotoxicity against human HEK293 cells at 0.01 uM by MTT assay; type: toxicity, cell-based; settings: hek293, 0.01 µM
A498 = assay: Cytotoxicity against human A498 cells at 10 uM; type: functional
MDA-MB-468 = assay: Cytotoxicity against human MDA-MB-468 cells at 10 uM; type: functional
HEK293 [5] = assay: Cytotoxicity against human HEK293 cells at 10 uM by MTT assay; type: toxicity, cell-based; settings: hek293, 10 µM
M14 = assay: Cytotoxicity against human M14 cells assessed as inhibition of cell growth at 10 uM; type: functional
COLO 205 = assay: Cytotoxicity against human COLO 205 cells assessed as inhibition of cell growth at 10 uM; type: functional
HEK293 [6] = assay: Cytotoxicity against human HEK293 cells at 100 uM by MTT assay; type: toxicity, cell-based; settings: hek293, 100 µM
HEK293 [7] = assay: Cytotoxicity against human HEK293 cells at 1 uM by MTT assay; type: toxicity, cell-based; settings: hek293, 1 µM
Enterococcus faecalis [8] = assay: Potency index, ratio of chloromycin MIC to test compound MIC for antibacterial activity against Enterococcus faecalis; type: functional
Enterococcus faecalis [9] = assay: Potency index, ratio of amoxicillin MIC to test compound MIC for antibacterial activity against Enterococcus faecalis; type: functional

SMILES | MIC (Bacillus subtilis) | MIC (Escherichia coli) | MIC (Enterococcus faecalis [1]) | MIC [2] | MIC (Listeria) | MIC (Serratia marcescens) | MIC (Salmonella enterica) | MIC (Staphylococcus aureus) | further results
N#Cc1ccc(CNc2nc(NN3C(=O)c4cccc5cccc(c45)C3=O)nc(N3CCOCC3)n2)cc1 | 400 µg/mL (≈ 790 µM) | 200 µg/mL (≈ 395 µM) | 100 µg/mL (≈ 197 µM) | 100 µg/mL (≈ 197 µM) | 200 µg/mL (≈ 395 µM) | 200 µg/mL (≈ 395 µM) | 400 µg/mL (≈ 790 µM) | 100 µg/mL (≈ 197 µM) | –
Cc1ccc(CNc2nc(NN3C(=O)c4cccc5cccc(c45)C3=O)nc(N3CCOCC3)n2)cc1 | 12.5 µg/mL (≈ 25.2 µM) | 200 µg/mL (≈ 404 µM) | 50 µg/mL (≈ 101 µM) | 100 µg/mL (≈ 202 µM) | 25 µg/mL (≈ 50.4 µM) | 100 µg/mL (≈ 202 µM) | 200 µg/mL (≈ 404 µM) | 12.5 µg/mL (≈ 25.2 µM) | –
c1ccc(CNc2nc(NCc3ccccc3)nc(N3CCOCC3)n2)cc1 | inactive | inactive | 400 µg/mL (≈ 1060 µM) | 200 µg/mL (≈ 531 µM) | inactive | inactive | inactive | 200 µg/mL (≈ 531 µM) | –
O=c1[nH]cc(F)c(=O)[nH]1 [FLUOROURACIL] | – | – | – | – | – | – | – | – | inhibition at 10 µM (SK-MEL-5): 66.3%; inhibition at 10 µM (HOP-92): 50.6%; inhibition at 10 µM (MOLT-4): 42.3%
O=C1c2cccc3cccc(c23)C(=O)N1Nc1nc(N2CCOCC2)nc(N2CCN(c3ccccc3)CC2)n1 | 50 µg/mL (≈ 93.2 µM) | inactive | 200 µg/mL (≈ 373 µM) | 200 µg/mL (≈ 373 µM) | 0.39 µg/mL (≈ 0.727 µM) | 50 µg/mL (≈ 93.2 µM) | 200 µg/mL (≈ 373 µM) | 100 µg/mL (≈ 186 µM) | inhibition at 10 µM (SK-MEL-5): 95%; Activity (MDA-MB-435): -12.6%; Activity (HEK293 [3]): 13.57%; Activity (HEK293 [4]): 14.05%; Activity (A498): -3.13%; Activity (MDA-MB-468): -15.85%; inhibition at 10 µM (HOP-92): 92.5%; Activity (HEK293 [5]): 12%; inhibition at 10 µM (MOLT-4): 81.6%; inhibition at 10 µM (M14): 80.6%; inhibition at 10 µM (COLO 205): 96.5%; Activity (HEK293 [6]): 10.08%; Activity (HEK293 [7]): 13.01%
O=C1c2cccc3cccc(c23)C(=O)N1Nc1nc(Nc2ccc(F)cc2)nc(N2CCOCC2)n1 | 200 µg/mL (≈ 412 µM) | 400 µg/mL (≈ 824 µM) | 200 µg/mL (≈ 412 µM) | 200 µg/mL (≈ 412 µM) | inactive | 200 µg/mL (≈ 412 µM) | 200 µg/mL (≈ 412 µM) | 50 µg/mL (≈ 103 µM) | –
C#CCNc1nc(NN2C(=O)c3cccc4cccc(c34)C2=O)nc(N2CCOCC2)n1 | 25 µg/mL (≈ 58.2 µM) | 100 µg/mL (≈ 233 µM) | 0.048 µg/mL (≈ 0.112 µM) | 200 µg/mL (≈ 466 µM) | 200 µg/mL (≈ 466 µM) | 200 µg/mL (≈ 466 µM) | 100 µg/mL (≈ 233 µM) | 50 µg/mL (≈ 116 µM) | –
CC1(C)S[C@@H]2[C@H](NC(=O)[C@H](N)c3ccc(O)cc3)C(=O)N2[C@H]1C(=O)O [AMOXICILLIN] | 50 µg/mL (≈ 137 µM) | 100 µg/mL (≈ 274 µM) | 1.56 µg/mL (≈ 4.27 µM) | 50 µg/mL (≈ 137 µM) | 50 µg/mL (≈ 137 µM) | 1.56 µg/mL (≈ 4.27 µM) | 200 µg/mL (≈ 547 µM) | 25 µg/mL (≈ 68.4 µM) | –
COc1ccc(CNc2nc(NN3C(=O)c4cccc5cccc(c45)C3=O)nc(N3CCOCC3)n2)cc1 | 12.5 µg/mL (≈ 24.4 µM) | 200 µg/mL (≈ 391 µM) | 3.12 µg/mL (≈ 6.11 µM) | 100 µg/mL (≈ 195 µM) | 50 µg/mL (≈ 97.7 µM) | 200 µg/mL (≈ 391 µM) | 100 µg/mL (≈ 195 µM) | 6.25 µg/mL (≈ 12.2 µM) | –
CCCCNc1nc(NN2C(=O)c3cccc4cccc(c34)C2=O)nc(N2CCOCC2)n1 | 25 µg/mL (≈ 55.9 µM) | 400 µg/mL (≈ 894 µM) | 0.09 µg/mL (≈ 0.201 µM) | 200 µg/mL (≈ 447 µM) | 200 µg/mL (≈ 447 µM) | 200 µg/mL (≈ 447 µM) | 100 µg/mL (≈ 223 µM) | 12.5 µg/mL (≈ 27.9 µM) | Ratio (Enterococcus faecalis [8]): 34; Ratio (Enterococcus faecalis [9]): 17
O=C1c2cccc3cccc(c23)C(=O)N1Nc1nc(NCCN2CCOCC2)nc(N2CCOCC2)n1 | 200 µg/mL (≈ 396 µM) | 100 µg/mL (≈ 198 µM) | 200 µg/mL (≈ 396 µM) | 200 µg/mL (≈ 396 µM) | 0.048 µg/mL (≈ 0.0951 µM) | 50 µg/mL (≈ 99.1 µM) | 200 µg/mL (≈ 396 µM) | 3.12 µg/mL (≈ 6.18 µM) | –
O=C1c2cccc3cccc(c23)C(=O)N1Nc1nc(N2CCOCC2)nc(N2CCN(Cc3ccccc3)CC2)n1 | 200 µg/mL (≈ 363 µM) | 200 µg/mL (≈ 363 µM) | 200 µg/mL (≈ 363 µM) | 200 µg/mL (≈ 363 µM) | 6.25 µg/mL (≈ 11.4 µM) | 50 µg/mL (≈ 90.8 µM) | 200 µg/mL (≈ 363 µM) | 100 µg/mL (≈ 182 µM) | –
CN1CCN(c2nc(NN3C(=O)c4cccc5cccc(c45)C3=O)nc(N3CCOCC3)n2)CC1 | 200 µg/mL (≈ 421 µM) | 100 µg/mL (≈ 211 µM) | 200 µg/mL (≈ 421 µM) | 200 µg/mL (≈ 421 µM) | 0.006 µg/mL (≈ 0.0126 µM) | 12.5 µg/mL (≈ 26.3 µM) | 200 µg/mL (≈ 421 µM) | 1.56 µg/mL (≈ 3.29 µM) | –
O=C1c2cccc3cccc(c23)C(=O)N1Nc1nc(N2CCOCC2)nc(N2CCOCC2)n1 | 100 µg/mL (≈ 217 µM) | 200 µg/mL (≈ 433 µM) | 200 µg/mL (≈ 433 µM) | 200 µg/mL (≈ 433 µM) | 200 µg/mL (≈ 433 µM) | 200 µg/mL (≈ 433 µM) | 100 µg/mL (≈ 217 µM) | 1.56 µg/mL (≈ 3.38 µM) | –
O=C1c2cccc3cccc(c23)C(=O)N1Nc1nc(NCc2ccc(F)cc2)nc(N2CCOCC2)n1 | 100 µg/mL (≈ 200 µM) | 100 µg/mL (≈ 200 µM) | 6.25 µg/mL (≈ 12.5 µM) | 100 µg/mL (≈ 200 µM) | 200 µg/mL (≈ 400 µM) | 200 µg/mL (≈ 400 µM) | 200 µg/mL (≈ 400 µM) | 25 µg/mL (≈ 50 µM) | –
O=C1c2cccc3cccc(c23)C(=O)N1Nc1nc(NC2CCCCC2)nc(N2CCOCC2)n1 | 50 µg/mL (≈ 106 µM) | 200 µg/mL (≈ 422 µM) | 3.12 µg/mL (≈ 6.59 µM) | 200 µg/mL (≈ 422 µM) | 25 µg/mL (≈ 52.8 µM) | 200 µg/mL (≈ 422 µM) | 200 µg/mL (≈ 422 µM) | 100 µg/mL (≈ 211 µM) | –
O=C1c2cccc3cccc(c23)C(=O)N1Nc1nc(N2CCCCC2)nc(N2CCOCC2)n1 | 6.25 µg/mL (≈ 13.6 µM) | 400 µg/mL (≈ 870 µM) | inactive | 200 µg/mL (≈ 435 µM) | 50 µg/mL (≈ 109 µM) | 200 µg/mL (≈ 435 µM) | 200 µg/mL (≈ 435 µM) | 1.56 µg/mL (≈ 3.39 µM) | –
CCN1CCN(c2nc(NN3C(=O)c4cccc5cccc(c45)C3=O)nc(N3CCOCC3)n2)CC1 | 200 µg/mL (≈ 409 µM) | 100 µg/mL (≈ 205 µM) | 200 µg/mL (≈ 409 µM) | 200 µg/mL (≈ 409 µM) | 3.12 µg/mL (≈ 6.39 µM) | 100 µg/mL (≈ 205 µM) | 200 µg/mL (≈ 409 µM) | 50 µg/mL (≈ 102 µM) | –
CCN(CC)CCNc1nc(NN2C(=O)c3cccc4cccc(c34)C2=O)nc(N2CCOCC2)n1 | 50 µg/mL (≈ 102 µM) | 200 µg/mL (≈ 408 µM) | 200 µg/mL (≈ 408 µM) | 200 µg/mL (≈ 408 µM) | 0.19 µg/mL (≈ 0.387 µM) | 12.5 µg/mL (≈ 25.5 µM) | 200 µg/mL (≈ 408 µM) | 100 µg/mL (≈ 204 µM) | –
C=CCNc1nc(NN2C(=O)c3cccc4cccc(c34)C2=O)nc(N2CCOCC2)n1 | 50 µg/mL (≈ 116 µM) | 200 µg/mL (≈ 464 µM) | 100 µg/mL (≈ 232 µM) | 100 µg/mL (≈ 232 µM) | 100 µg/mL (≈ 232 µM) | 200 µg/mL (≈ 464 µM) | 200 µg/mL (≈ 464 µM) | 25 µg/mL (≈ 57.9 µM) | –
CN(C)CCNc1nc(NN2C(=O)c3cccc4cccc(c34)C2=O)nc(N2CCOCC2)n1 | 200 µg/mL (≈ 432 µM) | 200 µg/mL (≈ 432 µM) | 200 µg/mL (≈ 432 µM) | 100 µg/mL (≈ 216 µM) | 50 µg/mL (≈ 108 µM) | 25 µg/mL (≈ 54.1 µM) | 100 µg/mL (≈ 216 µM) | 100 µg/mL (≈ 216 µM) | –

From ChEMBL document CHEMBL5620398, “Membrane-active substituted triazines as antibacterial agents against Staphylococcus aureus with potential for low drug resistance and broad activity” (Eur J Med Chem, 2023)
